In US11306063B2, “Heterocyclic naphthoquinones derivatives for use in the treatment of cancers including Cushing disease” (Commissariat a l'Energie Atomique et aux Energies …, priority 2016, dated 2022):
Where two headings read alike, the source gives them in different places.

Columns and labels:
[1] = tested on: PC-3 prostatic cancer cells; experiment: Cell growth inhibition and cell death induction (Incucyte), PC-3; assay type: cell-based, human; settings: 48 hours, FIG. 12C,D
Description: FIG. 12: The cell growth inhibition and cell death induction of non-small cell lung cancers (NSCLC), HCC827 cells and derivative Gefitinib-resistant clone H1975 (FIG. 12 A,B) and of PC-3 (FIG. 12 C,D) and LnCAP (FIG. 12 E,F) were monitored using Incucyte microscope. Histogram represent in A,C,E: the final cell area relative to the total well area in (%) and in B,D,F: the fluorescent area in μm2. Error bars indicate standard deviation between 6 technical replicates.
The cell growth inhibition and cell death induction of non-small cell lung cancers (NSCLC), HCC827 cells and derivative Gefitinib-resistant clone H1975 were monitored during a period of 72 hours using Incucyte microscope and dedicated programs allowing to monitor cell confluency (i.e.: cell surface area relative to total well surface) and cell death induction by adding Propidium Iodide (PI) at 1 μg/ml (Sigma Aldrich #P4864) in the culture medium.

[2] = target: T1, USP8^CD (purified catalytic domain of USP8) (Homo sapiens, UniProt P40818); experiment: Inhibition of purified USP8^CD enzymatic activity (Ub-AMC or Ub-Rho substrate); assay type: biochemical; settings: for inhibition of USP8^CD catalytic activity (IC50 range, FIG. 1): Ub-Rho substrate (0.1 μM); for inhibition at 0.01 µM: 0.01 μM compound; for inhibition at 0.05 µM: 0.05 μM compound; for inhibition at 0.1 µM: 0.1 μM compound; for inhibition at 0.5 µM: 0.5 μM compound; for inhibition at 1 µM: 1 μM compound; for inhibition at 5 µM: 5 μM compound; for inhibition at 10 µM: 10 μM compound; for inhibition at 25 µM: 25 μM compound; for inhibition at 50 µM: 50 μM compound
T1 construct: the purified catalytic domain of USP8 (USP8^CD, in-house purified); made in house; host or cells: E. coli BL21 Gold
T1 sequence (P40818 777-1109 limits assumed): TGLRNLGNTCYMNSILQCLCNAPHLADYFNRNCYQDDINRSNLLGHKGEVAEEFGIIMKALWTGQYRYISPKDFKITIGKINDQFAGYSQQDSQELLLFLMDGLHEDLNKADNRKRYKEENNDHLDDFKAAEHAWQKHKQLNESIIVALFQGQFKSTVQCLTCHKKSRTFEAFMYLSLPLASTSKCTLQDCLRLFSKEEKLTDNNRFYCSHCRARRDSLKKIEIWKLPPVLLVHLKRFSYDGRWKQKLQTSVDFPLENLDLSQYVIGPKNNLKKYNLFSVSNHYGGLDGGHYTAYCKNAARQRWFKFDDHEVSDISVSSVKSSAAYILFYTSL
Outline: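 His-tagged catalytic domain expressed in E. coli and purified by Ni affinity and gel filtration. Assayed in 50 mM HEPES pH 7.6 or 40 mM Tris pH 7.4 buffer with 1 mM DTT; compound added just before Ub-AMC or Ub-Rho substrate, fluorescence kinetics followed 20 or 30 min. Median of duplicates.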

[3] = target: T2, USP2^CD (purified catalytic domain of USP2) (Homo sapiens, UniProt O75604); experiment: Inhibition of purified USP2^CD enzymatic activity (Ub-AMC or Ub-Rho substrate); assay type: biochemical; settings: for inhibition of USP2^CD activity (IC50 range, FIG. 1): Ub-Rho substrate (0.1 μM); for inhibition at 0.01 µM: 0.01 μM compound; for inhibition at 0.05 µM: 0.05 μM compound; for inhibition at 0.1 µM: 0.1 μM compound; for inhibition at 0.5 µM: 0.5 μM compound; for inhibition at 1 µM: 1 μM compound; for inhibition at 5 µM: 5 μM compound; for inhibition at 10 µM: 10 μM compound; for inhibition at 25 µM: 25 μM compound; for inhibition at 50 µM: 50 μM compound
T2 construct: The purified catalytic domain of USP2 (USP2^CD, in-house purified); His; made in house; host or cells: E. coli BL21 Gold
T2 sequence (O75604 267-599 limits assumed): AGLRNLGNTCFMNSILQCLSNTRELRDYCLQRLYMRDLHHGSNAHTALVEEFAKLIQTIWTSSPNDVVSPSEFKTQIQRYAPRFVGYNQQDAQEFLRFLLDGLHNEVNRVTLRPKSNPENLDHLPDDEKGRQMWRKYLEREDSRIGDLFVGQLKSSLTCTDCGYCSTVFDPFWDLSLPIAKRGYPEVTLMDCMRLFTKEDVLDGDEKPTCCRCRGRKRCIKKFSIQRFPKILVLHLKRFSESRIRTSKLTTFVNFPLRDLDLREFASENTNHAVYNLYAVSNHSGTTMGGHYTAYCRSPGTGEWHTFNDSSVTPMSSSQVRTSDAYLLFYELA
Outline: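 His-tagged catalytic domain expressed in E. coli and Ni/gel-filtration purified; assayed in 50 mM HEPES pH 7.6 or 40 mM Tris pH 7.4 with 1 mM DTT. Compound added just before Ub-AMC or Ub-Rho substrate; fluorescence from hydrolysis followed over 20 or 30 min, median of duplicates.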

[4] = Ub-AMC substrate at 1 μM, Table 2b, read-out: IC50 USP8 CD
[5] = Ub-Rhodamine substrate at 0.1 μM, Table 2c, read-out: IC50 USP8 CD
[6] = Ub-AMC substrate at 1 μM, Table 2b, read-out: IC50 USP2 CD

| Compound | cell growth inhibition and cell death induction, PC-3 [1] | inhibition of USP8^CD catalytic activity (IC50 range, FIG. 1) [2] | inhibition of USP2^CD activity (IC50 range, FIG. 1) [3] | inhibition at 0.01 µM ([2]; Table 1d) [%] | inhibition at 0.05 µM ([2]; Table 1d) [%] | inhibition at 0.1 µM ([2]; Table 1d) [%] | inhibition at 0.5 µM ([2]; Table 1d) [%] | inhibition at 1 µM ([2]; Table 1b) [%] | inhibition at 1 µM ([2]; Table 1d) [%] | inhibition at 5 µM ([2]; Table 1b) [%] | inhibition at 5 µM ([2]; Table 1d) [%] | inhibition at 10 µM ([2]; Table 1d) [%] | inhibition at 25 µM ([2]; Table 1b) [%] | inhibition at 50 µM ([2]; Table 1b) [%] | IC50 [2, 4] [nM] | IC50 [2, 5] [nM] | inhibition at 0.01 µM ([3]; Table 1c) [%] | inhibition at 0.05 µM ([3]; Table 1c) [%] | inhibition at 0.1 µM ([3]; Table 1c) [%] | inhibition at 0.5 µM ([3]; Table 1c) [%] | further results |
| --- | --- | --- | --- | --- | --- | --- | --- | --- | --- | --- | --- | --- | --- | --- | --- | --- | --- | --- | --- | --- | --- |
| CCCCS(=O)(=O)Cc1nc2c(nc1CS(=O)(=O)CCCC)C(=O)c1ccccc1C2=O [PCR6236] | inhibit cell growth and induce cell death in a dose dependent manner | in the nanomolar range | in the micromolar range |  |  |  |  |  |  |  |  |  |  |  |  |  |  |  |  |  | IC50 [2]: 60 nM; IC50 [3]: 2100 nM |
| O=C1c2ccccc2C(=O)c2nc(CS(=O)(=O)c3ccccc3F)c(CS(=O)(=O)c3ccccc3F)nc21 [OVM24] | inhibit cell growth and induce cell death in a dose dependent manner |  |  | -25 | 3 | 7 | 65 | 64 | 74 | 103 | 78 | 97 | 115 | 103 | 400 | 2300 | -29 | 2 | 9 | 10 | inhibition at 1 µM ([3]; Table 1b): 54%; inhibition at 1 µM ([3]; Table 1c): 12%; inhibition at 5 µM ([3]; Table 1b): 68%; inhibition at 5 µM ([3]; Table 1c): 20%; inhibition at 10 µM ([3]; Table 1c): 17%; inhibition at 25 µM ([3]; Table 1b): 86%; inhibition at 50 µM ([3]; Table 1b): 96%; IC50 [3, 6]: > 10000 nM |
| CCCCS(=O)(=O)Cc1nc2c(o1)C(=O)c1ccccc1C2=O [PCR9301] |  | in the nanomolar range | in the micromolar range |  |  |  |  |  |  |  |  |  |  |  |  |  |  |  |  |  | inhibition at 0.1 µM ([2]; Table 3a): 53%; inhibition at 0.5 µM ([2]; Table 3a): 81%; inhibition at 1 µM ([2]; Table 3a): 107%; IC50 ([2]; Ub-Rho substrate, Table 3b, read-out: IC50 against purified USP8^CD): 80 nM; inhibition at 1 µM ([3]; Table 3a): 77%; inhibition at 5 µM ([3]; Table 3a): 99%; inhibition at 25 µM ([3]; Table 3a): 100%; inhibition at 50 µM ([3]; Table 3a): 100%; IC50 ([3]; Ub-Rho substrate, Table 3b, read-out: IC50 against purified USP2^CD): 400 nM |
| CCCS(=O)(=O)Cc1nc2c(nc1CS(=O)(=O)CCC)C(=O)c1ccccc1C2=O [VIN6074] | inhibit cell growth and induce cell death in a dose dependent manner |  |  | -17 | 16 | 0 | 67 | 93 | 93 | 98 | 103 | 99 | 100 | 107 | 300 | 40 | 1 | -13 | -23 | 23 | inhibition at 1 µM ([3]; Table 1b): 38%; inhibition at 1 µM ([3]; Table 1c): 17%; inhibition at 5 µM ([3]; Table 1b): 81%; inhibition at 5 µM ([3]; Table 1c): 70%; inhibition at 10 µM ([3]; Table 1c): 77%; inhibition at 25 µM ([3]; Table 1b): 98%; inhibition at 50 µM ([3]; Table 1b): 101%; IC50 [3, 6]: 3000 nM; IC50 ([3]; Ub-Rhodamine substrate at 0.1 μM, Table 2c, read-out: IC50 USP2 CD): 500 nM |
